Measurements published in ChEMBL document CHEMBL4811298, “Discovery of novel class of histone deacetylase inhibitors as potential anticancer agents” (Bioorg Med Chem, 2021).
≈ marks a conversion by molar mass, not a printed value. Calls of active or inactive are those of the source. The rule behind the calls is not given here.

Key:
MCF7 [1] = assay: Induction of apoptosis in human MCF7 cells assessed as downregulation of c-Myc gene expression at 1 uM measured after 24 hrs whole transcriptome analysis; assay type: functional, cell-based
[2] = Kinetic aqueous solubility of the compound in 2% DMSO/phosphate buffered saline at 200 uM incubated for 90 mins by UV absorbance based analysis; assay type: physicochemical; settings: read-out: Kinetic_solubility
[3] = Half life in human liver microsomes at 1 uM measured after 60 mins in presence of NADPH by LC-MS/MS analysis; assay type: ADME, Microsome
[4] = Metabolic stability of the compound in human liver microsomes assessed as parent compound remaining at 1 uM measured after 60 mins in absence of NADPH by LC-MS/MS analysis; assay type: ADME, Microsome; settings: read-out: Stabilty
Cytochrome P450 2D6 = Cytochrome P450 2D6 (Homo sapiens, UniProt P10635); assay: Inhibition of human CYP2D6 expressed in insect supersomes assessed as reduction in AHMC formation using AMMC as substrate measured after 40 mins in presence of NADPH by fluorescence based analysis; assay type: ADME
Cytochrome P450 2D6, sequence (P10635 whole entry): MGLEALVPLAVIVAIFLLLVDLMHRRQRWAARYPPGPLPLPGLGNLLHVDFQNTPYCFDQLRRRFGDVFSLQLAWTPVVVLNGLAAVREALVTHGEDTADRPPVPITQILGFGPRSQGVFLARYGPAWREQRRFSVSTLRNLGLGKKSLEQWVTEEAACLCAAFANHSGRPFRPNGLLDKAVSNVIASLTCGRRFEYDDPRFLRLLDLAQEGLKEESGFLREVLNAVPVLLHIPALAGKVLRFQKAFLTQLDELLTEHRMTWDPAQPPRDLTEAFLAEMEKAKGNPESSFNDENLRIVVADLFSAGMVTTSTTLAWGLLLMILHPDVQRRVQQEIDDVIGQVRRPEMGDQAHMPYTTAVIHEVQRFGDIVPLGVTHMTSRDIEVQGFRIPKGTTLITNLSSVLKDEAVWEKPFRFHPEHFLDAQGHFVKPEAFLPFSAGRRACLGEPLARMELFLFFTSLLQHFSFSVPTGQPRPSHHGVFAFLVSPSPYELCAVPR

Cytochrome P450 2C9 = Cytochrome P450 2C9 (Homo sapiens, UniProt P11712); assay: Inhibition of human CYP2C9-1 expressed in insect supersomes assessed as reduction in HFC formation using MFC as substrate measured after 30 mins in presence of NADPH by fluorescence based analysis; assay type: ADME
Cytochrome P450 2C9, sequence (P11712 whole entry, the tested form may be a part): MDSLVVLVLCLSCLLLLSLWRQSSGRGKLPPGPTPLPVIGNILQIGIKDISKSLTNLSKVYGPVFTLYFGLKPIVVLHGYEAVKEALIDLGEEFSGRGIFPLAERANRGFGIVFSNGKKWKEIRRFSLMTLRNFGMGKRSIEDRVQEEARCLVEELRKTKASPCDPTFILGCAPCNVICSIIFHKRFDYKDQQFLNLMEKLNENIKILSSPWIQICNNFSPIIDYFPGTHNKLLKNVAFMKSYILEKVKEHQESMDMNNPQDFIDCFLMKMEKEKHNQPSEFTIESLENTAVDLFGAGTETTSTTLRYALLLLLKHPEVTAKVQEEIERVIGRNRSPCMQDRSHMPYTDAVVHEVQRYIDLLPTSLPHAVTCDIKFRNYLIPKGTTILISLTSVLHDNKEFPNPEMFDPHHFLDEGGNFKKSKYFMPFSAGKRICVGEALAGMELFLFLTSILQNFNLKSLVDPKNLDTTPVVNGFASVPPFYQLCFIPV

Histone deacetylase 1 = Histone deacetylase 1 (Homo sapiens, UniProt Q13547); assay: Inhibition of C-terminal FLAG/His-tagged human recombinant HDAC1 (1 to 482 residues) expressed in baculovirus-infected Sf9 cells assessed as reduction in 7-amino-4-methylcoumarin release using fluorogenic HDAC substrate 3 measured every 5 mins by fluorescence based analysis
Histone deacetylase 1, sequence (Q13547 whole entry, the tested form may be a part): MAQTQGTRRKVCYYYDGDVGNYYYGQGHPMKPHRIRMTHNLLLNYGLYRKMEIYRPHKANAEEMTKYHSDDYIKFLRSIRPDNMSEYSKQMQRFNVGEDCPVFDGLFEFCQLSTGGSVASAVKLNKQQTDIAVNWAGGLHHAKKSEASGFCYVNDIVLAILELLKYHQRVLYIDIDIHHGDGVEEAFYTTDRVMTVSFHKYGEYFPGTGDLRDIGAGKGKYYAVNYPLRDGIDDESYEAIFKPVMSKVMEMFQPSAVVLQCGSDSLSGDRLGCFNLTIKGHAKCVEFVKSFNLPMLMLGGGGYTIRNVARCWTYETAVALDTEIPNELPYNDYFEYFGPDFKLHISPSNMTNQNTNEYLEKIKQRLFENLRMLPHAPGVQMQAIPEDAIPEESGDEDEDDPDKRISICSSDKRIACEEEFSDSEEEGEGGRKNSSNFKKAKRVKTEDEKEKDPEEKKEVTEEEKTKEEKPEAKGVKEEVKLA

[5] = Downregulation of HDAC1 gene expression in human MCF7 cells at 3 uM incubated for 24 hrs by whole transcriptome analysis relative to control; assay type: functional
MCF7 [6] = assay: Antiproliferative activity against human MCF7 cells assessed as reduction in cell viability incubated for 48 hrs by SRB assay; assay type: functional, cell-based; settings: MCF7, 48 h
A549 = assay: Antiproliferative activity against human A549 cells assessed as reduction in cell viability incubated for 48 hrs by SRB assay; assay type: functional, cell-based; settings: A549, 48 h
MCF7 [7] = assay: Induction of apoptosis in human MCF7 cells assessed as reduction in Bcl2 gene expression at 3 uM incubated for 24 hrs by whole transcriptome analysis; assay type: functional, cell-based
MCF7 [8] = assay: Induction of apoptosis in human MCF7 cells assessed as reduction in Bcl3 gene expression at 3 uM incubated for 24 hrs by whole transcriptome analysis; assay type: functional, cell-based
MCF7 [9] = assay: Induction of cell cycle arrest in human MCF7 cells assessed as accumulation at subG1 phase at 1 uM incubated for 24 to 72 hrs by PI staining based flow cytometric analysis; assay type: functional; settings: time 24-72 hrs
MCF7 [10] = assay: Induction of cell cycle arrest in human MCF7 cells assessed downregulation of CDK2 gene expression at 3 uM incubated for 24 hrs by whole transcriptome analysis; assay type: functional, cell-based
MCF7 [11] = assay: Induction of cell cycle arrest in human MCF7 cells assessed downregulation of CDK4 gene expression at 3 uM incubated for 24 hrs by whole transcriptome analysis; assay type: functional, cell-based
MCF7 [12] = assay: Induction of cell cycle arrest in human MCF7 cells assessed downregulation of CDK6 gene expression at 3 uM incubated for 24 hrs by whole transcriptome analysis; assay type: functional, cell-based
[13] = molecular target: Histone deacetylase (Homo sapiens) (UniProt Q13547+O15379+Q9UBN7+Q92769+Q9UQL6+Q8WUI4+Q9BY41+Q96DB2+P56524+Q9UKV0+Q969S8); assay: Inhibition of HDAC in human MCF7 cells assessed as increase in acetylated histone H4 mRNA level at 3 uM incubated for 24 hrs by whole transcriptome analysis; assay type: cell-based
MCF7 [14] = assay: Downregulation of NFkB2 gene expression in human MCF7 cells at 3 uM incubated for 24 hrs by whole transcriptome analysis; assay type: functional, cell-based
MCF7 [15] = assay: Induction of cell cycle arrest in human MCF7 cells assessed downregulation of RB1 gene expression at 3 uM incubated for 24 hrs by whole transcriptome analysis; assay type: functional, cell-based
Homo sapiens [16] = species: Homo sapiens; assay: Selectivity ratio of IC50 for inhibition of C-terminal His-tagged human HDAC9 (604 to 1066 residues) expressed in baculovirus-infected Sf9 cells to IC50 for inhibition of C-terminal FLAG/His-tagged human recombinant HDAC1 (1 to 482 residues) expressed in baculovirus-infected Sf9 cells
Homo sapiens [17] = species: Homo sapiens; assay: Selectivity ratio of IC50 for inhibition of N-terminal GST-tagged/C-terminal His-tagged human recombinant HDAC4 (627 to 1084 residues) expressed in baculovirus-infected Sf9 cells to IC50 for inhibition of C-terminal 6XHis-tagged human recombinant full length HDAC2 (1 to 488 residues) expressed in baculovirus-infected Sf9 cells
Homo sapiens [18] = species: Homo sapiens; assay: Selectivity ratio of IC50 for inhibition of N-terminal GST-tagged human recombinant full length HDAC5 expressed in baculovirus-infected Sf9 cells to IC50 for inhibition of C-terminal 6XHis-tagged human recombinant full length HDAC2 (1 to 488 residues) expressed in baculovirus-infected Sf9 cells
Homo sapiens [19] = species: Homo sapiens; assay: Selectivity ratio of IC50 for inhibition of N-terminal GST-tagged human HDAC7 (518 to end residues) expressed in baculovirus-infected Sf9 cells to IC50 for inhibition of C-terminal 6XHis-tagged human recombinant full length HDAC2 (1 to 488 residues) expressed in baculovirus-infected Sf9 cells

solubility kinetic at 1.5 h, 200 µM [2]: 36.1 µM (≈ 13.3 µg/mL)
half-life at 1 µM [3]: 7.1 min
remaining at 1 h, 1 µM [4]: 99%
IC50 (Cytochrome P450 2D6): > 10000 nM
IC50 (Cytochrome P450 2C9): > 10000 nM
IC50 (Histone deacetylase 1): 550 nM
IC50 (MCF7 [6]): 2000 nM
IC50 (A549): 200 nM
inhibition [13]: Active
SMILES: N=C(NO)c1ccc2nc(-c3cccc(-c4cn5ccccc5n4)c3)[nH]c2c1
Activity (MCF7 [1]): Active
fold change (FC) [5]: 3.2
Activity (MCF7 [7]): Active
Activity (MCF7 [8]): Active
Activity (MCF7 [9]): Active
Activity (MCF7 [10]): Active
Activity (MCF7 [11]): Active
Activity (MCF7 [12]): Active
inhibition (MCF7 [14]): Active
Activity (MCF7 [15]): Active
Ratio IC50 (Homo sapiens [16]): > 44
Ratio IC50 (Homo sapiens [17]): > 44
Ratio IC50 (Homo sapiens [18]): > 44
Ratio IC50 (Homo sapiens [19]): > 44
